This assay relates to Bemisia tabaci (Silverleaf whitefly). As to the kind of experiment: Curative control of Bemisia tabaci second nymph stage (N2) on French beans, spray application. It is filed as in vivo. An excerpt: Examples 1 to 3 describe biological tests relating to the curative and preventative control of a series of insects with the spray application of dilutions of a formulation containing fluazifop-P-butyl as sole active ingredient (EC125 formulation (FUSILADE MAX®)) in combination with OCHIMAR adjuvant (Syngenta-alkyl ester of phosphoric acid (752 g/L EC formulation)) to bean or cabbage plants infested with Bemisia tabaci, Frankliniella occidentalis or Myzus persicae. The testing protocols and insect control effects are shown. • ai=active ingredient (fluazifop-P-butyl).
Curative control of Bemisia tabaci (Silverleaf whitefly), second nymph stage (N2), treated on French beans (BBCH12):
• All treatments including check were applied with 250 mL adjuvant (Ochima) per hectare (ha).

Structures are written as SMILES.

In the case of `CCCCOC(=O)[C@@H](C)Oc1ccc(Oc2ccc(C(F)(F)F)cn2)cc1` [fluazifop-P-butyl, butyl (2R)-2-[4-[5-(trifluoromethyl)pyridin-2-yl]oxyphenoxy]propanoate], under “conclusion from the data in Tables 1 to 3”, the “efficacy against whiteflies compared to thrips or aphids” value is “selective efficacy”. Also, the controlling whitefly result (effect enhanced compared to aphids and thrips) is “highly effective”.

The record behind these values is US20240306639A1, “USE OF FLUAZIFOP-P-BUTYL FOR INSECT CONTROL” (priority 2021, published 2024).
